Experiments:
CLK1 = target: T1, CLK1 (Homo sapiens, UniProt P49759); test: Kinase TR-FRET assay, CLK1; type: biochemical; settings: full-length human kinase, 10 μM ATP
T1 construct: full-length human kinases from Carna Biosciences; purchased Carna Biosciences 04-126
Outline: (§1)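 Compounds tested at 0.1 nM to 30 μM in reaction buffer; reaction stopped with 10 mM EDTA. Phosphorylated MBP detected with 1 nM Europium-labelled anti-phospho-Thr232 antibody by TR-FRET.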

DYRK1A [1] = target: T2, DYRK1A (Homo sapiens, UniProt Q13627); test: Pharmacodynamic assay in RS4;11 tumor xenografts for inhibition of DYRK1A autophosphorylation; type: in vivo; design: tumors were excised and proteins were extracted in tissue lysis buffer; from tissue; host or cells: RS4;11 human leukemia xenograft tumors grown in female SCID mice; settings: mouse, single oral administration, 2 h, RS4;11 tumors in SCID mice, read-out: phospho-Ser520-DYRK1A (% control at 2 h)
Procedure: For pharmacodynamics studies of inhibition of DYRK1A autophosphorylation, female SCID mice were injected subcutaneously with RS4; 11 human acute lymphoblastic leukemia cells. When tumors reached a size of 200-300 mm^3, mice were randomized into homogeneous groups of 3 and given a single oral administration of the compounds of the invention at doses of up to 100 mg/kg. […] The relative levels of phospho-Ser520-DYRK1A were assayed using western blotting. For this, lysates were diluted into Laemmli sample buffer (Bio-Rad) containing 5% v/v β-mercaptoethanol, heated for 5 min at 95° C., and resolved on Tris-glycine gels or NuPage Bis-Tris gels (Novex; Invitrogen). Biotinylated molecular weight standards (Cell Signaling Technology) were included in all gels. Proteins were transferred to nitrocellulose membranes (Hybond, ECL; Amersham), which were blocked in Tris-buffered saline/0.1% tween 20 (TBST) containing 5% milk, and probed at 4° C. overnight with anti-phospho-Ser520-DYRK1A antibody (Eurogentec SE6974-75; 0.23 μg/ml in 5% BSA) or anti DYRK1A antibody (Abnova H00001859; 0.5 μg/ml in 5% milk). Peroxidase-conjugated secondary antibodies were diluted into 5% milk and applied to membranes for 1 h at 20° C. Chemiluminescence detection was performed using the ECL plus western blotting detection kit (Amersham) and was recorded on ECL plus hyperfilm (Amersham). Blots were scanned using the Bio-Rad GS-800 calibrated densitometer and quantitative analysis of western blots was performed using TotalLab software (Amersham). The percentage inhibition of phospho-Ser520-DYRK1A as compared to the control tumors was calculated using the ratio between phospho-Ser520-DYRK1A and total DYRK1A signals at each dose.

DYRK1B = target: T3, DYRK1B (Homo sapiens, UniProt Q9Y463); test: Kinase TR-FRET assay, DYRK1B; type: biochemical; settings: full-length human kinase, 10 μM ATP
T3 construct: full-length human kinases from Carna Biosciences; purchased Carna Biosciences 04-131
T3 sequence (Q9Y463 whole entry): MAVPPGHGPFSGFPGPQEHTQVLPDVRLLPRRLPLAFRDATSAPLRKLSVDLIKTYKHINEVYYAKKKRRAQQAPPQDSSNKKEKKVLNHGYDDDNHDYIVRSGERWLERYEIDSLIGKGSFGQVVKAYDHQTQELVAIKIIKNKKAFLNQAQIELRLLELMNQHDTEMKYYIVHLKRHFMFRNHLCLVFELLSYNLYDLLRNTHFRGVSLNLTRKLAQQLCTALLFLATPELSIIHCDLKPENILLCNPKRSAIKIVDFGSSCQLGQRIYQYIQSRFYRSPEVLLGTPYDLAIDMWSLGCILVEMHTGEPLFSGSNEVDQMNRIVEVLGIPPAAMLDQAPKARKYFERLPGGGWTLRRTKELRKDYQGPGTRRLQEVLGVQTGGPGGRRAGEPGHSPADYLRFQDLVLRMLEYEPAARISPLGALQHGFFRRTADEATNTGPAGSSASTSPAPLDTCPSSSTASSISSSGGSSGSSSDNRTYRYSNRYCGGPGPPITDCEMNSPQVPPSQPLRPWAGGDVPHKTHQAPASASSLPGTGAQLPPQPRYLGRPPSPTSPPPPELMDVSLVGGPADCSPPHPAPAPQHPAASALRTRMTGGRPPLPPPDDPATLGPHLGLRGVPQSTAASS
Outline: as §1

DYRK1A [2] = target: T2, DYRK1A; test: Cellular DYRK1 autophosphorylation assay in U2-OS cells; type: cell-based; design: full-length, wild-type human DYRK1A (NM_001396) with an HA tag; expressed in transfected cells; host or cells: human U2-OS osteosarcoma cells, transient transfection of a pcDNA3.1 plasmid; settings: U2-OS cells transfected with HA-tagged human DYRK1A, 5 hours exposure; read-out: IC50 (μM) P-Ser520-Dyrk1A -Cell assay
Outline: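 IC50 derived from dose-response curves of phospho-Ser520-DYRK1A (blots normalised to total DYRK1A), quantified by either immunoblotting with chemiluminescence or Mesoscale electrochemiluminescent ELISA. Compounds applied to U2-OS cells across several concentrations for 5 hours.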

T1 sequence (P49759 1-526 isoform P49759-3): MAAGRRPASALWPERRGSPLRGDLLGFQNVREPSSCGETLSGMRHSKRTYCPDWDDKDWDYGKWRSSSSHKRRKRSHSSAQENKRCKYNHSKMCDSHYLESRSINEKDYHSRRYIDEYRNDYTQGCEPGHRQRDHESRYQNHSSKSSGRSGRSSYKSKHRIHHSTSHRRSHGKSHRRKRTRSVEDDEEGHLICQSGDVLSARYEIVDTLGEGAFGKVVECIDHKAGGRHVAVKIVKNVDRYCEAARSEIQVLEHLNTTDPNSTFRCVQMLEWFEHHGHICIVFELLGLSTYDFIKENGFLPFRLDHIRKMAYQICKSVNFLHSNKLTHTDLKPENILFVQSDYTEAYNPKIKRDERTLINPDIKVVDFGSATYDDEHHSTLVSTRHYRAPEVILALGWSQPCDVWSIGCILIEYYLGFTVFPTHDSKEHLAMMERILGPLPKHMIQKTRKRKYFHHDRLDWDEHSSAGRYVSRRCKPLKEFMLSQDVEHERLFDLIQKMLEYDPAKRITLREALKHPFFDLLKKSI

## Cc1nc2ccc(-c3cc(N)nc(N)c3)nc2n1C[C@@H](C)Oc1ccccc1 (single isomer, unassigned) [Example 106]
CLK1
  IC50: 0.019 µM
DYRK1A [1]; dose 9 mg/kg
  response vs control in vivo at 9 mg/kg: 46%
DYRK1B
  IC50: 0.006 µM
DYRK1A [2]
  IC50: 0.073 µM

## Cc1nc2ccc(-c3cc(N)nc(N)c3)nc2n1C1CC1 [Example 9, 4-(3-cyclopropyl-2-methyl-3H-imidazo[4,5-b]pyridin-5-yl)pyridine-2,6-diamine]
CLK1
  IC50: 0.021 µM
DYRK1A [1]
  response vs control in vivo at 3 mg/kg: 44%
DYRK1B
  IC50: 0.006 µM
DYRK1A [2]
  IC50: 0.09 µM

## Cc1nc2ccc(-c3cc(N)nc(N)c3)nc2n1Cc1ccoc1 [Example 42, 4-[3-(furan-3-ylmethyl)-2-methyl-3H-imidazo[4,5-b]pyridin-5-yl]pyridine-2,6-diamine]
CLK1
  IC50: 0.053 µM
DYRK1A [1]
  response vs control in vivo at 3 mg/kg: 35%
DYRK1B
  IC50: 0.01 µM
DYRK1A [2]
  IC50: 0.045 µM

## Cc1nc2ccc(-c3cc(N)nc(N)c3)nc2n1CCCC(F)(F)F [Example 71, 4-[2-methyl-3-(4,4,4-trifluorobutyl)-3H-imidazo[4,5-b]pyridin-5-yl]pyridine-2,6-diamine]
CLK1
  IC50: 0.016 µM
DYRK1A [1]
  response vs control in vivo at 3 mg/kg: 33%
DYRK1B
  IC50: 0.006 µM
DYRK1A [2]
  IC50: 0.047 µM

## Cc1nc2ccc(-c3cc(N)nc(N)c3)nc2n1C1CC(F)(F)C1 [Example 101, 4-[3-(3,3-difluorocyclobutyl)-2-methyl-3H-imidazo[4,5-b]pyridin-5-yl]pyridine-2,6-diamine]
CLK1
  IC50: 0.016 µM
DYRK1A [1]
  response vs control in vivo at 3 mg/kg: 25%
DYRK1B
  IC50: 0.007 µM
DYRK1A [2]
  IC50: 0.006 µM

## Cc1nc2ccc(-c3cc(N)nc(N)c3)nc2n1C1CC(F)C1 (stereo not shown) [Example 103, 4-[3-(3-fluorocyclobutyl)-2-methyl-3H-imidazo[4,5-b]pyridin-5-yl]pyridine-2,6-diamine]
CLK1
  IC50: 0.015 µM
DYRK1A [1]
  response vs control in vivo at 3 mg/kg: 41%
DYRK1B
  IC50: 0.005 µM
DYRK1A [2]
  IC50: 0.014 µM

## CCn1c(C)nc2ccc(-c3cc(N)nc(N)c3)nc21 [Example 154, 4-(3-ethyl-2-methyl-3H-imidazo[4,5-b]pyridin-5-yl)pyridine-2,6-diamine]
CLK1
  IC50: 0.023 µM
DYRK1A [1]
  response vs control in vivo at 3 mg/kg: 28%
DYRK1B
  IC50: 0.002 µM
DYRK1A [2]
  IC50: 0.02 µM
